The source of these data is patent US20220267753A1, “RATIONAL THERAPEUTIC TARGETING OF ONCOGENIC IMMUNE SIGNALING STATES IN MYELOID MALIGNANCIES VIA THE UBIQUITIN CONJUGATING ENZYME UBE2N” (CHILDREN'S HOSPITAL MEDICAL CENTER, priority 2019, published 2022).

Values after ≈ are worked out from the molar mass of the structure shown.

The subject of data set [1] is THP1-Blue NF-κB reporter cells. Put plainly: NF-κB activation assay. Type of data set: cell-based, human. As to conditions: for UBE2N-dependent activation of NF-κB, reporter screen: top 14 small molecules. The method, then: THP1-Blue NF-κB reporter cells (Invivogen) were diluted to 100,000 cells/mL and stimulated with 1 μg/mL IL1β, 100 ng/ml Pam3CSK4 or 1 μ/m LPS. The cells were subsequently seeded into a 96 well plate at 20,000 cells per well (200 μl) and introduced to drugs in an increasing concentration. The plates were incubated at 37 C, 5% CO2 for 24 hours. The following day, QuantiBlue Reagent was warmed to 37 C in a water bath and 180 μl was added to each well of a separate, clean 96 well plate. The incubated cells were spun down, and the supernatant was taken for the assay. To perform the assay, 20 μl of supernatant from each well was pipetted into the respective 180 μl QuantiBlue Reagent well, in triplicate. The reaction was mixed and incubated for 1 to 4 hours, when a color gradient could be seen. The absorbance was read at 630 nm for a final readout.

The next data set in a line: Aqueous solubility. In kind it is physicochemical. As to conditions: aqueous medium (not further specified); read-out: Aqueous Solubility, highest soluble concentration.
Another data set in a line: Plasma stability. In kind it is in vitro ADME. Further details: half-life: dose or concentration left out as unconfirmed. As to conditions: C57/Bl6 plasma, concentration 1 (mM), K2EDTA; for half-life: mouse, read-out: Plasma Stability T ½.
Another data set deals with T1, UBE2N C87S mutant (Homo sapiens, UniProt P61088, C87S).
T1 construct: purchased Genescript
T1 sequence (P61088 whole entry C87S): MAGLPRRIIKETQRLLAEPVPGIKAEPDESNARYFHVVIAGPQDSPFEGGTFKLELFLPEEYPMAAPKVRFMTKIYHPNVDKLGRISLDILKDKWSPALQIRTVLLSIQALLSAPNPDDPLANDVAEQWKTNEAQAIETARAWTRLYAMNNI
Put plainly: Linear mass spectrometry (MALDI-TOF) analysis of drug binding. The conditions noted are these: MALDI-TOF-MS. As for the experimental part: (§1) Recombinant UBE2N (2 .tg; Life sensors #UB218) in 3 .tl of buffer containing 20 mM Tris-HCl pH 7.4, 10 mM DTT, 10% glycerol, 150 mM NaCl and 0.02% DMSO as well as six samples of 1 .tg UBE2N mixed with 0.2 .tg of UC-764864 or UC-764865 were diluted to 50 ng/uL in 0.1% formic acid (FA) in preparation of MALDI-TOF analysis. Two .tl aliquots from the samples were used to make a 1:5 dilution with MALDI matrix (5 mg/mL sinapic acid in 60% ACN/0.1% formic acid) with 1 .tL spotted onto the target plate for analysis. For UBE2N C87S mutant, recombinant protein was purchased from Genescript. 2 micrograms of protein as well as 3 samples of UBE2N C87S were mixed with 0.4 micrograms of UC-764864 and UC-764865 in 10 microliters of buffer containing 20 mM Tris HCl pH 7.4, 1 mM DTT, 150 mM NaCl and ˜0.01% of DMSO in each sample. All mixtures were brought up to 40 ul by adding 30 ul of 0.1% formic acid (FA). 5 ul aliquots from the samples were used to make a 1:5 dilution with MALDI matrix as described above. All spectra were acquired in Linear Positive Ion Mode on an ABSciex 4800 MALDI-TOF/TOF instrument, with E. coli thioredoxin (11,674.5; MH+ avg) and horse muscle apomyoglobin (15,952.6; MH+ avg) as mass calibration standards. For DSF, all proteins (UBE2N wild type and UBE2N C87S) were used at a final concentration of 5 .tM. SYPRO Orange (Invitrogen 56651, Carlsbad, Calif.) was used at a final concentration of 10× for UBE2N wild type and UBE2N C87S. Experiments were carried out in 20 mM Tris-HCl pH 8, 150 mM NaCl, 1 mM TCEP, and 10% DMSO. UC-764865 was mixed with the proteins at increasing concentrations, each sample was divided into three 25 .tl replicates in 48-well optical plates (Thermo Fisher Scientific 4375816, Waltham, Mass.) and the plate was sealed with optical PCR plate sheet (Thermo Fisher Scientific 4375928). All experiments were performed on a StepOne Real-Time PCR System (Applied Biosystems 4376357, Foster City, Calif.). The temperature was raised in 1° C. increments from 25° C. to 95° C. and fluorescence was measured at 530 nm. Derivative Tm was determined using Protein Thermal Shift Software version 1.3 by Applied Biosystems and then were analyzed with Prism 6 (GraphPad Software Inc.).

Another data set addresses T2, UBE2N wild type (Homo sapiens, UniProt P61088).
T2 construct: purchased Life sensors UB218
T2 sequence (P61088 1-152): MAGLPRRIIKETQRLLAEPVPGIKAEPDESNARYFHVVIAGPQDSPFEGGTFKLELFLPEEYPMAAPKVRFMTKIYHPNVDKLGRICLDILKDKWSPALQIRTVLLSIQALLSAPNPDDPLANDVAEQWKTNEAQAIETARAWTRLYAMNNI
The description is as above. As to conditions: MALDI-TOF-MS, incubated with compound. As for the experimental part: as §1

Data set [2] can be described thus: Microsomal stability (mouse liver microsomes). Type of data set: in vitro ADME, C57/Bl6. As to conditions: for Microsomal Stability % Remaning at T60 / CLint scaled / half-life: C57/Bl6, concentration 1 (mM), matrix 0.5 mg/ml; for CLint scaled: C57/Bl6, mouse; for CLint scaled / half-life: liver microsomes; for half-life: mouse, read-out: Microsomal Stability T ½. For orientation: Microsomes from liver hold many membrane-bound enzymes, among them those of drug oxidation.

One may read the CLint scaled as the capacity of the preparation to metabolise the compound, expressed as a volume cleared per time. As to `CCc1ccc(C(=O)C=CSc2nc3ccc(C)cc3[nH]2)cc1` [UC-764864, 1-(4-ethylphenyl)-3-[(6-methyl-1H-benzimidazol-2-yl)sulfanyl]prop-2-en-1-one], the “UBE2N-mediated NF-κB activity downstream of IL1R, TLR2, TLR4” value in data set [1] (increasing concentrations, concentration dependent, equal potency) is “inhibited UBE2N-mediated NF-κB activity”. For the same compound, the “UBE2N-dependent activation of NF-κB, reporter screen” value in data set [1] is “inhibition of UBE2N-dependent signaling”. Besides, the solubility in the data set “Aqueous solubility” was 1 µM (≈ 0.322 µg/mL). In addition, in the data set “Plasma stability”, the “Plasma Stability % Remaning at T60” value was 21.4% and the half-life is 31.8 min. Besides, the “binding to recombinant UBE2N(C87S) (mass shift)” value at UBE2N C87S mutant is reported as “does not bind”. The mass shift of wild-type UBE2N protein at UBE2N wild type stood at 160 Da. In data set [2], the “metabolism in mouse liver microsomes” value is “readily metabolized”, the “Microsomal Stability % Remaning at T60” value amounted to 0.02%, the CLint scaled was 1090 mL/min/kg and the half-life was found to be 4.99 min.

For the compound `COc1ccc(C(=O)C=CSc2nc3ccc(C)cc3[nH]2)cc1` [UC-764865, 1-(4-methoxyphenyl)-3-[(6-methyl-1H-benzimidazol-2-yl)sulfanyl]prop-2-en-1-one], the “UBE2N-dependent activation of NF-κB, reporter screen” value in data set [1] is listed as “inhibition of UBE2N-dependent signaling”. For the same compound, the solubility in “Aqueous solubility” stood at 5 µM (≈ 1.62 µg/mL). Moreover, in “Plasma stability”, the “Plasma Stability % Remaning at T60” value is listed as 39.6% and the half-life was found to be 53.6 min. For the same compound, on UBE2N C87S mutant, the “binding to recombinant UBE2N(C87S) (mass shift)” value is “does not bind”. The mass shift of wild-type UBE2N protein at UBE2N wild type is 160 Da. In data set [2], the “Microsomal Stability % Remaning at T60” value was 0.2%, the CLint scaled was found to be 1100 mL/min/kg and the half-life worked out at 4.97 min.
